In ChEMBL document CHEMBL3526033, “Identification of human liver cytochrome P450 enzymes involved in the metabolism of SCH 530348 (Vorapaxar), a potent oral thrombin protease-activated receptor 1 antagonist” (Drug Metab Dispos, 2011):
Each block holds one compound with its values, some of them ahead of it.

Experiments:
Cytochrome P450 2C18 = Cytochrome P450 2C18 (Homo sapiens, UniProt P33260); assay: Activity of human recombinant CYP2C18 assessed as enzyme-mediated drug metabolism treated with 25 uM vorapaxar after 120 mins by LC-MS/MS analysis in presence of NADPH; type: ADME; details: 2 h
[1] = Drug level in human lung microsomes treated with 25 uM vorapaxar after 120 mins by LC-MS/MS analysis in presence of NADPH; type: ADME, microsome; details: 2 h
Cytochrome P450 1B1 = Cytochrome P450 1B1 (Homo sapiens, UniProt Q16678); assay: Activity of human recombinant CYP1B1 assessed as enzyme-mediated drug metabolism treated with 25 uM vorapaxar after 120 mins by LC-MS/MS analysis in presence of NADPH; type: ADME; details: 2 h
Cytochrome P450 2D6 [2] = molecular target: T1, Cytochrome P450 2D6 (Homo sapiens, UniProt P10635); assay: Activity of human recombinant CYP2D6 assessed as enzyme-mediated drug metabolism treated with 25 uM vorapaxar after 120 mins by LC-MS/MS analysis in presence of NADPH; type: ADME; details: 2 h
Liver microsome [3] = assay: Drug metabolism in human liver microsomes assessed as (3R,3aS,4S,4aR,7R,8aR,9aR)-7-amino-4-((E)-2-(5-(3-fluorophenyl)pyridin-2-yl)vinyl)-3-methyldecahydronaphtho[2,3-c]furan-1(3H)-one formation at 10 to 25 uM after 120 mins by LC-MS/MS analysis in presence of ketoconazole; type: ADME; details: 2 h
Cytochrome P450 3A4 [4] = molecular target: T2, Cytochrome P450 3A4 (Homo sapiens, UniProt P08684); assay: Drug metabolism assessed as human recombinant CYP3A4-mediated 2-hydroxyethyl (1R,3aR,4aR,6R,8aR,9S,9aS)-9-((E)-2-(5-(3-fluorophenyl)pyridin-2-yl)vinyl)-1-methyl-3-oxododecahydronaphtho[2,3-c]furan-6-ylcarbamate formation at 25 uM after 120 mins by LC-MS/MS analysis in presence of ketoconazole; type: ADME; details: recombinant enzyme, 2 h
Liver microsome [5] = assay: Drug metabolism in human liver microsomes assessed as (3R,3aS,4S,4aR,7R,8aR,9aR)-7-amino-4-((E)-2-(5-(3-fluorophenyl)pyridin-2-yl)vinyl)-3-methyldecahydronaphtho[2,3-c]furan-1(3H)-one formation after 120 mins by LC-MS/MS analysis; type: ADME; details: 2 h
Cytochrome P450 2C9 = Cytochrome P450 2C9 (Homo sapiens, UniProt P11712); assay: Activity of human recombinant CYP2C9 assessed as enzyme-mediated drug metabolism at 10 uM after 120 mins by LC-MS/MS analysis; type: ADME; details: 2 h
Cytochrome P450 2D6 [6] = molecular target: T1, Cytochrome P450 2D6; assay: Activity of human recombinant CYP2D6 assessed as enzyme-mediated 2-hydroxyethyl (1R,3aR,4aR,6R,8aR,9S,9aS)-9-((E)-2-(5-(3-fluorophenyl)pyridin-2-yl)vinyl)-1-methyl-3-oxododecahydronaphtho[2,3-c]furan-6-ylcarbamate formation at 25 uM after 120 mins by LC-MS/MS analysis in presence of NADPH; type: ADME; details: 2 h
Cytochrome P450 3A5 = Cytochrome P450 3A5 (Homo sapiens, UniProt P20815); assay: Activity of human recombinant CYP3A5 assessed as enzyme-mediated (3R,3aS,4S,4aR,7R,8aR,9aR)-7-amino-4-((E)-2-(5-(3-fluorophenyl)pyridin-2-yl)vinyl)-3-methyldecahydronaphtho[2,3-c]furan-1(3H)-one formation at 25 uM after 120 mins by LC-MS/MS analysis in presence of NADPH; type: ADME; details: 2 h
Cytochrome P450 4F12 = Cytochrome P450 4F12 (Homo sapiens, UniProt Q9HCS2); assay: Activity of human recombinant CYP4F12 assessed as enzyme-mediated 2-hydroxyethyl (1R,3aR,4aR,6R,8aR,9S,9aS)-9-((E)-2-(5-(3-fluorophenyl)pyridin-2-yl)vinyl)-1-methyl-3-oxododecahydronaphtho[2,3-c]furan-6-ylcarbamate formation at 25 uM after 120 mins by LC-MS/MS analysis in presence of NADPH; type: ADME; details: 2 h
Cytochrome P450 4F3 = molecular target: T3, Cytochrome P450 4F3 (Homo sapiens, UniProt Q08477); assay: Activity of human recombinant CYP4F3A assessed as enzyme-mediated (3R,3aS,4S,4aR,7R,8aR,9aR)-7-amino-4-((E)-2-(5-(3-fluorophenyl)pyridin-2-yl)vinyl)-3-methyldecahydronaphtho[2,3-c]furan-1(3H)-one formation at 25 uM after 120 mins by LC-MS/MS analysis in presence of NADPH; type: ADME; details: 2 h
T3 sequence (Q08477 whole entry): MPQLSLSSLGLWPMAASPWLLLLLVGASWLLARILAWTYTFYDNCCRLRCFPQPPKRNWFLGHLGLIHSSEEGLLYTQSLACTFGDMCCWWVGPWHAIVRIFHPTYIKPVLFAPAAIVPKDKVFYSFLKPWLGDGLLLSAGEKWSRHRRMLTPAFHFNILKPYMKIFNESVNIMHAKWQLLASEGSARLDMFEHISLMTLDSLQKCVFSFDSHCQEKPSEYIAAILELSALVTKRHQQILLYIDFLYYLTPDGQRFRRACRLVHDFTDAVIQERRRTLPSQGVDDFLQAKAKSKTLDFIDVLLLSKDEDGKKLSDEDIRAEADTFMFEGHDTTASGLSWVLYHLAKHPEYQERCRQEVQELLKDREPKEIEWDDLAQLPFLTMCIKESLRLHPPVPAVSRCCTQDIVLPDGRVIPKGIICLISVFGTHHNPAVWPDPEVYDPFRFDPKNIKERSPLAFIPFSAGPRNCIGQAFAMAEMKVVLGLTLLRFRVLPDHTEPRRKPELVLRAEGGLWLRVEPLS

Cytochrome P450 1A1 = molecular target: T4, Cytochrome P450 1A1 (Homo sapiens, UniProt P04798); assay: Activity of human recombinant CYP1A1 assessed as enzyme-mediated drug metabolism at 10 uM after 120 mins by LC-MS/MS analysis; type: ADME; details: 2 h
T4 sequence (P04798 whole entry): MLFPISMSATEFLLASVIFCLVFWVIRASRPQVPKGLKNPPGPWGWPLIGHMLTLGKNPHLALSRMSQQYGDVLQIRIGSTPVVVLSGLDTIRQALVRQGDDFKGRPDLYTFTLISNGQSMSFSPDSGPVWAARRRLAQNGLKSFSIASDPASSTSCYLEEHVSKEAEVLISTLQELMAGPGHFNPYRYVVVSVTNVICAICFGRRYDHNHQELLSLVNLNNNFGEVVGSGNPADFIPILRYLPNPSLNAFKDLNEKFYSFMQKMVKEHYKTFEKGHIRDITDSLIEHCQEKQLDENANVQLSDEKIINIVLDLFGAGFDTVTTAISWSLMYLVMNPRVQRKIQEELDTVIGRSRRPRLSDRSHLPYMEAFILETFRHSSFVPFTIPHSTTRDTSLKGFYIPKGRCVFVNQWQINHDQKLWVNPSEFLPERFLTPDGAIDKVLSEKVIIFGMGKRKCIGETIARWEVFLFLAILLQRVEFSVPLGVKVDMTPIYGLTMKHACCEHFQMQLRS

Cytochrome P450 3A4 [7] = molecular target: T2, Cytochrome P450 3A4; assay: Activity of human recombinant CYP3A4 assessed as enzyme-mediated 2-hydroxyethyl (1R,3aR,4aR,6R,8aR,9S,9aS)-9-((E)-2-(5-(3-fluorophenyl)pyridin-2-yl)vinyl)-1-methyl-3-oxododecahydronaphtho[2,3-c]furan-6-ylcarbamate formation at 25 uM after 120 mins by LC-MS/MS analysis in presence of NADPH; type: ADME; details: 2 h
Cytochrome P450 3A4 [8] = molecular target: T2, Cytochrome P450 3A4; assay: Activity of human recombinant CYP3A4 assessed as enzyme-mediated drug metabolism at 10 uM after 120 mins by LC-MS/MS analysis; type: ADME; details: 2 h

T2 sequence (P08684 whole entry): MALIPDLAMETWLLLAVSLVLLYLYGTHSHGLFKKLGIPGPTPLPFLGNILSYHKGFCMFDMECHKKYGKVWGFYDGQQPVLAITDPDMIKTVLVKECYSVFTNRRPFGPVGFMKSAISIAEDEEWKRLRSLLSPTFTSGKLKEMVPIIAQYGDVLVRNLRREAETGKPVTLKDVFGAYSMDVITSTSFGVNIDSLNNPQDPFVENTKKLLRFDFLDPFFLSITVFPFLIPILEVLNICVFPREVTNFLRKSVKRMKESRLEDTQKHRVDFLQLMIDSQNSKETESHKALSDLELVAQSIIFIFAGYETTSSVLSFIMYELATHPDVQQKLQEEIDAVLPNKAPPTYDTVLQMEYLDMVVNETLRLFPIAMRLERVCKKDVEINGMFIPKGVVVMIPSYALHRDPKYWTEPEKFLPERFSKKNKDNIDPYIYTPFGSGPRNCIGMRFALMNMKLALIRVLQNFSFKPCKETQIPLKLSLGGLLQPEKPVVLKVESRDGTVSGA
T1 sequence (P10635 whole entry): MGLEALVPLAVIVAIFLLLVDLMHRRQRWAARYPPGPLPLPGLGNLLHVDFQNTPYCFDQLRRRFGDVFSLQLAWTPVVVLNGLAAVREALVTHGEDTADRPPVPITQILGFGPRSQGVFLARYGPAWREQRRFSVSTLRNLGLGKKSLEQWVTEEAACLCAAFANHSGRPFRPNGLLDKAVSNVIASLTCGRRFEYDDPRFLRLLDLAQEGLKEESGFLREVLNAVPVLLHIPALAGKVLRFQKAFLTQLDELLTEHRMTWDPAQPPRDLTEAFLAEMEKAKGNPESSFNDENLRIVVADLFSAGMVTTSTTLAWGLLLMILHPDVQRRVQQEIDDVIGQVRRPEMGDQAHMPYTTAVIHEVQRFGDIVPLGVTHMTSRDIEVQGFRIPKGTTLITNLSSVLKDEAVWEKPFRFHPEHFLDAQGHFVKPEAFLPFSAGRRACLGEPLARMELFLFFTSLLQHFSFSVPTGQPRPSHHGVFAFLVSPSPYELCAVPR
Sequence of Cytochrome P450 1B1 (Q16678 whole entry): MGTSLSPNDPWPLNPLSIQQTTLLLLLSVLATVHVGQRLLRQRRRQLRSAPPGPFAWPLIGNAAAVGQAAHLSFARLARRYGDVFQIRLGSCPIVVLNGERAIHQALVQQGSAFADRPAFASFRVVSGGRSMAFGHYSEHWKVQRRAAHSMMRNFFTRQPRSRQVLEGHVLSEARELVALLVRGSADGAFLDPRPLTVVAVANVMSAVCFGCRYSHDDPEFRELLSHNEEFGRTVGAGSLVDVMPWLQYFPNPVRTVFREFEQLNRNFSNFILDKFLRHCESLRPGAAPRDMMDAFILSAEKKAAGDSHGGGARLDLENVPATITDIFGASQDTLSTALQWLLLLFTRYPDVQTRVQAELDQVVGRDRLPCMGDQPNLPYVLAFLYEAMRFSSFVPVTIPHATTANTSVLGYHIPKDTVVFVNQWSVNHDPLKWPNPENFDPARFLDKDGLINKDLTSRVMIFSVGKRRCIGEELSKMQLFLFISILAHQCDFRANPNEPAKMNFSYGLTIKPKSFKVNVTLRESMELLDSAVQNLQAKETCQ
Sequence of Cytochrome P450 2C9 (P11712 whole entry): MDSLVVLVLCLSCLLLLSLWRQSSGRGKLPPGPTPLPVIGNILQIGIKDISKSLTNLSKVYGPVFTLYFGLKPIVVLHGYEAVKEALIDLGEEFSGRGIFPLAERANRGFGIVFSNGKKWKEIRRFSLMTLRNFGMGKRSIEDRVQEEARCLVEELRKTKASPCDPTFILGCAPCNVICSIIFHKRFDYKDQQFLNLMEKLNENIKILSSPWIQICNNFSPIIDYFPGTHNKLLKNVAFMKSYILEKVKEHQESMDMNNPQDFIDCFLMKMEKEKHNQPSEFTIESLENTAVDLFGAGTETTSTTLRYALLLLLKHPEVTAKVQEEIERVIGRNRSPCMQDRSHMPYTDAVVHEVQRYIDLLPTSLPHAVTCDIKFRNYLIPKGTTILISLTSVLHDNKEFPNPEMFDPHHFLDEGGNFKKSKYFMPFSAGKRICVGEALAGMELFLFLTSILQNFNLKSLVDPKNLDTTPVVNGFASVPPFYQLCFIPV
Sequence of Cytochrome P450 3A5 (P20815 whole entry): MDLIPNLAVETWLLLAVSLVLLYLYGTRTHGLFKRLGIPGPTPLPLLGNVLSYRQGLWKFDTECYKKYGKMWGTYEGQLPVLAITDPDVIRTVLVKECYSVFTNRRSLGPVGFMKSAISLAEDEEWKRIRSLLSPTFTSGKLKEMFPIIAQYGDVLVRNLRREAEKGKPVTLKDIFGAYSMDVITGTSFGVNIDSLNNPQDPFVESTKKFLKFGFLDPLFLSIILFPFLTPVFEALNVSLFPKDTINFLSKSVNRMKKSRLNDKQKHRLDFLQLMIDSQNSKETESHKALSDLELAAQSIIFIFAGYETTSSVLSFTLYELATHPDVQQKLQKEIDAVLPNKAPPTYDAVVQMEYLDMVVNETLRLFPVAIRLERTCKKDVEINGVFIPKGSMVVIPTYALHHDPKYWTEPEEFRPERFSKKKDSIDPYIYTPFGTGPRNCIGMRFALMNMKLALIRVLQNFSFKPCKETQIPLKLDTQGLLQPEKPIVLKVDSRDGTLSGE
Sequence of Cytochrome P450 2C18 (P33260 whole entry): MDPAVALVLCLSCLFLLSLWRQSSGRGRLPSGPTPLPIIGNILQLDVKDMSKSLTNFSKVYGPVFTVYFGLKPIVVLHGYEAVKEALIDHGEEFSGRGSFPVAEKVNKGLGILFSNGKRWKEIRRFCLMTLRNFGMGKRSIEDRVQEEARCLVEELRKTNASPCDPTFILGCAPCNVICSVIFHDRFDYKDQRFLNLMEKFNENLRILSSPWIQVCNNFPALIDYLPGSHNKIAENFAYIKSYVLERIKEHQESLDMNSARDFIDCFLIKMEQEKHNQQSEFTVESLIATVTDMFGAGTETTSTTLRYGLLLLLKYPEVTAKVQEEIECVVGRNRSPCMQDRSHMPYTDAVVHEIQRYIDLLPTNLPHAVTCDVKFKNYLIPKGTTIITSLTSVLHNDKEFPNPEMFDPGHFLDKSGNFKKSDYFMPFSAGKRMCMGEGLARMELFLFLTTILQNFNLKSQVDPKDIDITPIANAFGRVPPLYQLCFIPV
Sequence of Cytochrome P450 4F12 (Q9HCS2 whole entry): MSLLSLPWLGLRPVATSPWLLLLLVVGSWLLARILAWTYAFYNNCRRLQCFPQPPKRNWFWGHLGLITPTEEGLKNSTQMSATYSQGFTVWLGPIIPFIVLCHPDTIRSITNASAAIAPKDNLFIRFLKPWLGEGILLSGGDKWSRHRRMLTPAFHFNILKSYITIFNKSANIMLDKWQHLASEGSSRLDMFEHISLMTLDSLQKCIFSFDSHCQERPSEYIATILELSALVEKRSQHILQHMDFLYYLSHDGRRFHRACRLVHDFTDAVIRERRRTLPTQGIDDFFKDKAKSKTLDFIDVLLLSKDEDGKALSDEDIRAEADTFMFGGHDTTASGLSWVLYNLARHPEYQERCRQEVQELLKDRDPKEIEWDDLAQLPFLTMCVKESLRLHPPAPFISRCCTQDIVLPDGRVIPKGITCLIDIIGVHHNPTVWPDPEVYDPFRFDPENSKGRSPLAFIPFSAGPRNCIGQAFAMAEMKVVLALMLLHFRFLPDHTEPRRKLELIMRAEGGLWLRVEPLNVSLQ

- Drug metabolism (Cytochrome P450 2C18): metabolite_detected
- Drug metabolism [1]: metabolite_detected
- Drug metabolism (Cytochrome P450 1B1): metabolite_detected
- Drug metabolism (Cytochrome P450 2D6 [2]): metabolite_detected
SMILES: C[C@H]1OC(=O)[C@@H]2C[C@@H]3C[C@H](NC(=O)OCCO)CC[C@H]3[C@H](/C=C/c3ccc(-c4cccc(F)c4)cn3)[C@H]12

- Drug metabolism (Liver microsome [3]): metabolite_not_detected
- Drug metabolism (Cytochrome P450 3A4 [4]): metabolite_not_detected
SMILES: CCOC(=O)N[C@@H]1CC[C@@H]2[C@@H](C1)C[C@H]1C(=O)O[C@H](C)[C@H]1[C@H]2/C=C/c1ccc(-c2cccc(F)c2)cn1 [VORAPAXAR]

- Km (Liver microsome [5]): 23.5 µM
- Drug metabolism (Cytochrome P450 2C9): metabolite_not_detected
- Drug metabolism (Cytochrome P450 2D6 [6]): metabolite_detected
- Drug metabolism (Cytochrome P450 3A5): metabolite_detected
- Drug metabolism (Cytochrome P450 4F12): metabolite_detected
- Drug metabolism (Cytochrome P450 4F3): metabolite_detected
- Drug metabolism (Cytochrome P450 1A1): metabolite_not_detected
- Drug metabolism (Cytochrome P450 3A4 [7]): metabolite_detected
- Drug metabolism (Cytochrome P450 3A4 [8]): metabolite_not_detected
SMILES: CCOC(=O)N[C@@H]1CC[C@@H]2[C@@H](C1)C[C@H]1C(=O)O[C@H](C)[C@H]1[C@H]2/C=[14CH]/c1ccc(-c2cccc(F)c2)cn1
